Experimental findings from patent US11208446B2, “Agents and methods for treating CBP-dependent cancers” (priority 2016, dated 2021) are described below.

“Also recorded” adds a separate entry of the source. *: point of attachment. Biotin = O=C1N[C@H]2[C@H](CS[C@H]2CCCCC(=O)*)N1

In test [1] the target is T1, CBP in MV411 human AML cells (Homo sapiens, UniProt Q92793).
T1 construct: endogenous in cells; host or cells: MV411 human AML cells (lysate)
Description: Streptavidin affinity purification (pull-down) of CBP with biotinylated peptides, Western blot. The following applies: AML cell lysates, competition with non-biotinylated peptide. The class given is binding. As for the experimental part:
Western blot analysis. Cells were lysed in RIPA buffer (Thermo Fisher) supplemented with a protease inhibitor mix comprised of AEBSF (0.5 mM concentration, Santa Cruz, SC-202041B), Bestatin (0.01 mM concentration, Fisher/Alfa Aesar, J61106-MD), Leupeptin (0.1 mM concentration, Santa Cruz, SC-295358B), and Pepstatin (0.001 mM concentration, Santa Cruz, SC-45036A). Lysates were mechanically disrupted using Covaris S220 adaptive focused sonicator, according to the manufacturer's instructions (Covaris, Woburn, Calif.). Lysates were cleared by centrifugation for 15 min at 18,000×g and clarified lysates were quantified using the bicinchoninic acid assay (Pierce). Clarified lysates (20 μg of protein) were resolved using sodium dodecyl sulfate-polyacrylamide gel electrophoresis, and electroeluted using the Immobilon FL PVDF membranes (Millipore, Billerica, Mass., USA). Membranes were blocked using the Odyssey Blocking buffer (Li-Cor, Lincoln, Nebr., USA). […] Blotted membranes were visualized using secondary antibodies conjugated to IRDye 800CW or IRDye 680RD (Goat anti-rabbit, 1:15,000, and goat anti-mouse, 1:15,000) and the Odyssey CLx fluorescence scanner, according to manufacturer's instructions (Li-Cor, Lincoln, Nebr., USA). […]

The target of another test is T2, purified CBP-KIX domain (Homo sapiens, UniProt Q92793).
T2 construct: Expression and purification of recombinant CBP KIX domain; GST (N, cleaved yes); made in house; host or cells: E. coli BL21(DE3)
T2 sequence (Q92793 587-666 limits assumed): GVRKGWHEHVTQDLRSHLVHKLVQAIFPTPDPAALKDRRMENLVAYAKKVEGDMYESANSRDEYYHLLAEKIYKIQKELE
Description: Microscale thermopheresis (MST) binding of FITC-conjugated peptides to purified KIX. The following applies: FITC-conjugated peptide at fixed concentration, KIX 0.015 to 50 μM, n=3. How it is done:
Expression and purification of recombinant CBP KIX domain. BL21(DE3) cells (Invitrogen) transformed with pGEX-KIX plasmid were induced at 37° C. with isopropyl β-D-1-thiogalactopyranoside for 3 hours. Cells were lysed in 50 mM Tris-HCl pH 7.3, 150 mM NaCl, 0.1% TWEEN-20, 1 mM DTT, 5 mM EDTA, supplemented with protease inhibitors described above and sonicated for ten minutes (15 sec on, 15 sec off, 40% amplitude) using the Misonix probe sonicator (Qsonica, Newtown, Conn.). Lysate was cleared by centrifugation for 1 h at 21,800×g at 4° C. Cleared lysate was incubated with 4 mL glutathione agarose resin slurry (GoldBio) for 1 h at 4° C. to capture GST-KIX. Resin was washed four times with 50 mM Tris-HCl pH 7.4, 150 mM NaCl. KIX domain was cleaved from GST by incubation of resin-bound GST-KIX with 160 U thrombin (GE Healthcare) overnight at room temperature. Resin was centrifuged at 500×g for 5 min. Supernatant containing cleaved KIX was collected and dialyzed at 4° C. against 50 mM MOPS pH 6.5, 50 mM NaCl, 10% glycerol, 1 μM tris-2-carboxyethylphosphine. KIX was purified using a linear gradient of 50 mM to 1 M NaCl by cation exchange chromatography using MonoS 5/50 GL column (GE Healthcare). Fractions containing purified KIX were dialyzed against 50 mM potassium phosphate pH 5.5, 150 mM NaCl, 10 μM tris-2-carboxyethylphosphine, 30% glycerol, and stored at −80° C. […]

Another test deals with MOLM13 cells. Nature of the test: Confocal microscopy of intranuclear penetration of FITC-labelled peptide. The settings on record: 50 nM peptide, 20 minutes, human AML cell line. It counts as cell-based. As for the experimental part:
Confocal microscopy. Live confocal imaging was performed using the Leica SP8 confocal microscope and 63× objective with 1 μm z-stack images. Cells were applied to a poly-L-lysine coated chambered Nunc Lab-tek II slide and incubated for 2 hours at 37° C. Prior to imaging, FITC-conjugated peptides were added to cell suspensions at a concentration of 50 nM. Cells were counter-stained using Hoechst 33342 and Mitotracker Red CMX ROS (MProbes) for 10 minutes at a final dilution of 1:10,000 prior to imaging.

In test [2] the test system is MOLM13, MV411, ML2, and HL60 cell lines. Nature of the test: Cell viability, live cell count by Trypan blue exclusion. It counts as cell-based, human. The following applies: 10 μM and 20 μM every 48 hours for 6 days. How it is done: Cell culture. The human AML lines MV411, MOLM13, ML2, and HL60 were obtained from the American Type Culture Collection (ATCC, Manassas, Va., USA). Umbilical cord blood was obtained from the New York Blood Center. The identity of all cell lines was verified by STR analysis (Genetica DNA Laboratories, Burlington, N.C., USA) and absence of Mycoplasma sp. contamination was determined using Lonza MycoAlert (Lonza Walkersville, Inc., Walkersville, Md., USA). Cell lines were cultured in 5% CO2 in a humidified atmosphere at 37° C. in RPMI medium supplemented with 10% fetal bovine serum (FBS) and antibiotics (100 U/ml penicillin and 100 μg/ml streptomycin). Cell viability analysis. Cells were resuspended and plated at a concentration of 2×10^5 cells in 200 μL in 96-well tissue culture plates. Media with peptides was replaced every 48 hours. To assess the number of viable cells, cells were resuspended in PBS and 10 μL mixed in a 1:1 ratio with 0.4% Trypan Blue (Thermo Fisher) and counted using a hematocytometer (Hausser Scientific, Horsham, Pa., USA). To assess viability using an ATP-based assay, cell viability was assessed using the CellTiter-Glo Luminescent Viability assay, according to the manufacturer's instructions (Promega). Luminescence was recorded using the Infinite M1000Pro plate reader using integration time of 250 milliseconds (Tecan).

For another test, the target named is T3, MYB:CBP complex (Homo sapiens, UniProt Q92793).
T3 construct: endogenous in cells; host or cells: MV411 human AML cells
T3 sequence (Q92793 2-2442 limits assumed, one chain of several): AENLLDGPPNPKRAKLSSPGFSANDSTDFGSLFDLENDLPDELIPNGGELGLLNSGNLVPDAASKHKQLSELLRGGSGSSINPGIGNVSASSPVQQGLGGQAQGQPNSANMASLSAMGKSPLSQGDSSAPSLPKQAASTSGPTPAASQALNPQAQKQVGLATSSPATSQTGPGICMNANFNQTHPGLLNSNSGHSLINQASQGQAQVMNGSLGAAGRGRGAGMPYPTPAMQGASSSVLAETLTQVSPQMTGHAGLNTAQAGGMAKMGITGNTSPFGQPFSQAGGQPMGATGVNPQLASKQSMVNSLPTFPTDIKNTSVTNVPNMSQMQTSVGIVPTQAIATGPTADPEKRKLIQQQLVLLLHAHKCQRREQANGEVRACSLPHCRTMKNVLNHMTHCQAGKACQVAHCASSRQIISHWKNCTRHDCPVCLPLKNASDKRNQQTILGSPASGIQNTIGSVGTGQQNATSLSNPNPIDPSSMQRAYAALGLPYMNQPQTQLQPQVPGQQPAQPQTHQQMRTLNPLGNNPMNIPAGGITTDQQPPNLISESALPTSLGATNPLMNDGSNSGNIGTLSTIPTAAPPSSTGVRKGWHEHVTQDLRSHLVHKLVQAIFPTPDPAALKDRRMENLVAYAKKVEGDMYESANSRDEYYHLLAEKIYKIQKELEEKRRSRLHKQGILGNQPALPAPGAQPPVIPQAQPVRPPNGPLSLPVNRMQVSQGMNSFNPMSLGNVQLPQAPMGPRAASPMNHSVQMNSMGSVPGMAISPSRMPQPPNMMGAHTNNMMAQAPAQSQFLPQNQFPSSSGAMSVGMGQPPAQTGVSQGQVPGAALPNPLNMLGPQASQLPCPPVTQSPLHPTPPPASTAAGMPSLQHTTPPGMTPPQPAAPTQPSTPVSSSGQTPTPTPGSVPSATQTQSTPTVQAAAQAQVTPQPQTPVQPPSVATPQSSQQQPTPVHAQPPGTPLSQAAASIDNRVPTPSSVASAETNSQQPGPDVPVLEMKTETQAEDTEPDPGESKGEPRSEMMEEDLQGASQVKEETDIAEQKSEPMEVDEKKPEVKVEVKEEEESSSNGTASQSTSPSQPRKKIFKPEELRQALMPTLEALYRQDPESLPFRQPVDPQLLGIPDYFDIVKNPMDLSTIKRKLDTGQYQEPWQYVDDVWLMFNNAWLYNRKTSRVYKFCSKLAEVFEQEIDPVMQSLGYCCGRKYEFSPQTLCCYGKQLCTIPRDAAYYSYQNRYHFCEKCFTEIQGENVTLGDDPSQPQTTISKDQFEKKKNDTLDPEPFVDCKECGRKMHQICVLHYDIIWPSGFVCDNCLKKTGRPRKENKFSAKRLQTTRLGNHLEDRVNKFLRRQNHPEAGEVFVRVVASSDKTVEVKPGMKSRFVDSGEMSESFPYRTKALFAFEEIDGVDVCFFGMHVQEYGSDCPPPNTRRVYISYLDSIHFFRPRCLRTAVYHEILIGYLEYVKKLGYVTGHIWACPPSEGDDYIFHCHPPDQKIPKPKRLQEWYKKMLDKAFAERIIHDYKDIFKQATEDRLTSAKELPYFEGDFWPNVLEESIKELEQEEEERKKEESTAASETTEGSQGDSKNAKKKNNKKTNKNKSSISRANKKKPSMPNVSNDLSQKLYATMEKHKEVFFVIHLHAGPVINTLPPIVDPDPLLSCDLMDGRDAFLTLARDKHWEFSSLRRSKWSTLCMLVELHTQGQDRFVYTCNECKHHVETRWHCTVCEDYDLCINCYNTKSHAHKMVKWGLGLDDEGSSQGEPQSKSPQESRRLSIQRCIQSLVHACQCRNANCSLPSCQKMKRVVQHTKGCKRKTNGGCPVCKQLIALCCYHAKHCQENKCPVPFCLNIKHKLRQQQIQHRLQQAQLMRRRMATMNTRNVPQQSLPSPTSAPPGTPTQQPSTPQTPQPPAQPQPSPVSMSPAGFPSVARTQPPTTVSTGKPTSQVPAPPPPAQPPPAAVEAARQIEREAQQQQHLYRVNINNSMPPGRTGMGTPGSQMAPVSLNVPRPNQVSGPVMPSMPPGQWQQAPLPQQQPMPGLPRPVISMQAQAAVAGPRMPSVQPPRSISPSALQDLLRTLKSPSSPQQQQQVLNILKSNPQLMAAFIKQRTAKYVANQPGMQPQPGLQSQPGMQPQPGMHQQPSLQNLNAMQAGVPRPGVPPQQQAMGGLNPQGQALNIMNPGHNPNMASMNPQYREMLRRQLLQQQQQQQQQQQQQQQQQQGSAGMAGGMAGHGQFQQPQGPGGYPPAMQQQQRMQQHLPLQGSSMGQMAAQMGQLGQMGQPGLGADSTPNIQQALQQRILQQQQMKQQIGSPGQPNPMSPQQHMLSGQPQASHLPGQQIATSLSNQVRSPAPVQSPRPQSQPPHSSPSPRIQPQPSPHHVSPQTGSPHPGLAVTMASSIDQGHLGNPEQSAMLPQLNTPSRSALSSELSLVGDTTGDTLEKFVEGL
Nature of the test: Dissociation of MYB:CBP complex in AML cells (co-immunoprecipitation). The class given is cell-based. How it is done:
Co-immunoprecipitation analysis. 7.5 μg of indicated antibodies were conjugated to 1 mg M-270 Epoxy-coated magnetic beads (Invitrogen) according to manufacturer's instructions. 1×10^7 MV411 cells were collected and washed in cold PBS. Washed cell pellets were resuspended in 350 μL cold lysis buffer (50 mM Tris-HCl pH 7.4, 150 mM NaCl, 1 mM EDTA, 1 mM DTT, 0.5% Triton X-100, supplemented with protease inhibitors described above) and incubated on ice for 10 min. Cells were mechanically disrupted using the Covaris […] adaptive focused sonicator at 50 W peak power, 10% duty cycle, 200 cycles per burst at 4° C. for 300 sec. Lysate was clarified by centrifugation for 15 min at 18,000×g at 4° C. Supernatant (cleared lysate) was diluted in 1.05 mL dilution buffer (50 mM Tris-HCl, 150 mM NaCl, 1 mM EDTA, 1 mM DTT, 10% glycerol, supplemented with protease inhibitors described above for a total volume of 1.4 mL. Diluted lysate was added to 1 mg beads, and immunoprecipitation proceeded for 3 h at 4° C. with rotation. Beads were then washed with lysis buffer twice. Proteins were eluted in 20 μL EB buffer (Invitrogen) for 5 min at room temperature, and eluate was neutralized with 2 μL 1M Tris pH 11. Samples were prepared for Western blot by addition of Laemmli buffer with 50 mM DTT and incubation at 95° C. for 5 min. Presence of MYB and CBP was identified by Western blot as described above.

T1 sequence (Q92793 whole entry): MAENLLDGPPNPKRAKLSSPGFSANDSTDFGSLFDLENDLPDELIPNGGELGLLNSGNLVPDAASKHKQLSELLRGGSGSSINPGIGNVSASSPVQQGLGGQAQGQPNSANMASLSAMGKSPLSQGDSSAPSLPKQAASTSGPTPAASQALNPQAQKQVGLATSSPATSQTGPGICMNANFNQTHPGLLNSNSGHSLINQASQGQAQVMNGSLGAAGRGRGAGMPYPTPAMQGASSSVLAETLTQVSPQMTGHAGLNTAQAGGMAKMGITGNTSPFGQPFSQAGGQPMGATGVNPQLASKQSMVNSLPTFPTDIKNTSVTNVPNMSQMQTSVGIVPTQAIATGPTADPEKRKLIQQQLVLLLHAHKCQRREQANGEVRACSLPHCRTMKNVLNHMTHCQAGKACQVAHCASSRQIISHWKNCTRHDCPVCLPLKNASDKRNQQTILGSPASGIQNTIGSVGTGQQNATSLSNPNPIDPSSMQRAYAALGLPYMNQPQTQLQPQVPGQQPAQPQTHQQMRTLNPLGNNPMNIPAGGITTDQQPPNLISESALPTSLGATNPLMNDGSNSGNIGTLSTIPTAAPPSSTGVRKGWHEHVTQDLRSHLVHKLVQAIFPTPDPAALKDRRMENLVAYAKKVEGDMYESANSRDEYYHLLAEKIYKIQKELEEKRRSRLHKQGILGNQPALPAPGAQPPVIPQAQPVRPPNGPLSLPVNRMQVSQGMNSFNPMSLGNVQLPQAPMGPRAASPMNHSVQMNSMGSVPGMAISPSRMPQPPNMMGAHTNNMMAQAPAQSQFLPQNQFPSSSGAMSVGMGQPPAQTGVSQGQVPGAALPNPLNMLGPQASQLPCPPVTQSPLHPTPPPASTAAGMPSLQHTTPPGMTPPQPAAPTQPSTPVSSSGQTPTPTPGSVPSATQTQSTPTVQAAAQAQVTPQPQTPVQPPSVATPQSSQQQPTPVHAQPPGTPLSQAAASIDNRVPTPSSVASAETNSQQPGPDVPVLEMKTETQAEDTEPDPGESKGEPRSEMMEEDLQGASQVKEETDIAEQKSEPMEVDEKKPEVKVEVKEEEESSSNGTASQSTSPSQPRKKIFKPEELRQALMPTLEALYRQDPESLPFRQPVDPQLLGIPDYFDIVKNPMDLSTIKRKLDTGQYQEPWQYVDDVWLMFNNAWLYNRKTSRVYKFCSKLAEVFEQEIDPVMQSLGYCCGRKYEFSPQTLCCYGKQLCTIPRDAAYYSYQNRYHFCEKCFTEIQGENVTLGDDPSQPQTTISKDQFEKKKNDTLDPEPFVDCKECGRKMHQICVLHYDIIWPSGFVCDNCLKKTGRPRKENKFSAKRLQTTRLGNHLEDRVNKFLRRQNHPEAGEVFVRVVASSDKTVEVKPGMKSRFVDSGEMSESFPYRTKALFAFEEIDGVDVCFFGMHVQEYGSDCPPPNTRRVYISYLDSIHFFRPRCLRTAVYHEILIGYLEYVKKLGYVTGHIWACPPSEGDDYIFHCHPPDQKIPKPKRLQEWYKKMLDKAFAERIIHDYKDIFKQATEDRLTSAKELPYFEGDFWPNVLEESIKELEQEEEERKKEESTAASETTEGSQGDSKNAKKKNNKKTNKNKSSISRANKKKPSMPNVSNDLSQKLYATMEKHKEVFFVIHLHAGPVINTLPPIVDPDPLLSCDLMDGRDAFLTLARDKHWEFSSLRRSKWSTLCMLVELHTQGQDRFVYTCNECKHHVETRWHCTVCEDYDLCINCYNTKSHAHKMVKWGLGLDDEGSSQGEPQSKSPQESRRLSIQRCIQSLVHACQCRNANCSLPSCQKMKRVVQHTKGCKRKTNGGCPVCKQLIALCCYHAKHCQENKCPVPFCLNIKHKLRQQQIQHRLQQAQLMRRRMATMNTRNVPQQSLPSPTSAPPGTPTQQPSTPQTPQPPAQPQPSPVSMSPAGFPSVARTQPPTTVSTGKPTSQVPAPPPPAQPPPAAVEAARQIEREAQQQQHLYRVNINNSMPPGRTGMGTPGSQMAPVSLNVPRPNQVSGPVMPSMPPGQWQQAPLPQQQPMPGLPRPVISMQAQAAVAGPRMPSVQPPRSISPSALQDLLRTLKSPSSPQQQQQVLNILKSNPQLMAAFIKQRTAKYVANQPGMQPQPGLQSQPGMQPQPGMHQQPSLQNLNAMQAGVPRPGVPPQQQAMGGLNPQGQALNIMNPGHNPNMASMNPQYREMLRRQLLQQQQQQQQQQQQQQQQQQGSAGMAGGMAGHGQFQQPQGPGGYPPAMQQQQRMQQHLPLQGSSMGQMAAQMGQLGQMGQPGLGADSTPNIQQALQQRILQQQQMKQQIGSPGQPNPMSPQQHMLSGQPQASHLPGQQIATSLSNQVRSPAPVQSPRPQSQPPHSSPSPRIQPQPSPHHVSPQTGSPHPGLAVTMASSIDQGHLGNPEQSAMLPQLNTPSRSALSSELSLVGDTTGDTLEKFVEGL

On to “Biotin-YGRKKRRQRRRGGKRIKELELLLMSTENELK-NH2 [BIOMYB]”, for which the “binding to / pull-down of CBP” value in test [1] is recorded as “able to pull down CBP; also recorded: specific binding”.

Take FITC-AHA-YGRKKRRQRRR-NH2 [FITC-TAT]: the “KD (apparent binding affinity to purified KIX)” value at purified CBP-KIX domain is “no interaction seen”. Besides, the “intranuclear penetration (FITC-Hoechst overlay)” value in the test with MOLM13 cells is “overlap of FITC and Hoechst in the nucleus”; in the test on MOLM13 cells (listed as SEQ ID NO:6), “intranuclear penetration”.

In the case of “[Ac]-KLGNETSMGLLELEKIGKGG-RRRQRRKKRGY-[NH2] [TG3, reference compound]”, in test [2], the “AML cell death (live cells on Day 6)” value was “inactive”. The “MYB:CBP complex in cells” value on MYB:CBP complex was “inactive”.

As to “acetyl-KLENETSMLLLELEKIRKGGRRRQRRKKRGYK-biotin-NH2 [RI-BIOMYB]”, in test [1], the “binding to / pull-down of CBP” value was “specific binding”.
